Assay results published in patent US6774132B1, “Spirooxindole derivatives that act as analgesics” (AstraZeneca AB, priority 1999, dated 2004).

melting point: 110 to 112 °C
SMILES: CCCN1CCCC2(C1)NC(=O)c1ccccc12.Cl (stereo not shown)
